Activity calls are given as the source filed them. The calls are words filed in the database; no cut-off is given here.

The nature of data set [1]: Cytotoxicity against dog MDCK cells assessed as cell viability after 72 hrs by MTS assay. Type of data set: cell-based, Canis lupus familiaris.
Data set [2] in a line: Cytotoxicity against dog MDCK cells assessed as cell morphology alterations. Type of data set: cell-based, Canis lupus familiaris.
In data set [3] the test system is Influenza A virus. Description: Antiviral activity against Influenza A virus (A/X-31(H3N2)) infected in MDCK cells assessed as virus-induced cytopathic effect measured 3 days post infection by microscopic analysis. Type of data set: functional, organism-based. For orientation: Cytopathic effects are the visible damage that an infection or toxin causes in cultured cells.

Data set [4] relates to Influenza A virus. Description: Antiviral activity against Influenza A virus (A/Ishikawa/7/82 (H3N2)) infected in MDCK cells assessed as virus-induced cytopathic effect measured 3 days post infection by microscopic analysis. Type of data set: functional, organism-based.
The subject of data set [5] is Influenza A virus. Description: Antiviral activity against amantadine-sensitive Influenza A virus (A/FM/1/47 (H1N1)) infected in MDCK cells assessed as virus-induced cytopathic effect measured 3 days post infection by microscopic analysis. Type of data set: functional, organism-based. Conditions: A/Fort Monmouth/1/1947(H1N1), 72 h.
In data set [6] the test system is H3N2 subtype. Put plainly: Antiviral activity against Influenza A virus (A/HK/7/87 (H3N2)) infected in MDCK cells assessed as virus-induced cytopathic effect measured 3 days post infection by microscopic analysis. Type of data set: functional, organism-based. To be noted: A/Hong Kong/7/1987(H3N2), 72 h.
For data set [7], the system named is Mammalian orthoreovirus 1. Description: Antiviral activity against Reovirus-1 by cell based assay. It is filed as functional, organism-based.
The subject of a further data set is Coxsackievirus B4. Put plainly: Antiviral activity against Coxsackievirus B4 by cell based assay. It is filed as functional, organism-based.
In another data set the test system is Punta Toro virus. Put plainly: Antiviral activity against Punta Toro virus by cell based assay. It is filed as functional, organism-based.
Another data set relates to Sindbis virus. Put plainly: Antiviral activity against Sindbis virus by cell based assay. It is filed as functional, organism-based.
Data set [8] relates to Vesicular stomatitis virus. Description: Antiviral activity against Vesicular stomatitis virus by cell based assay. It is filed as functional, organism-based.
In a further data set the test system is Human respirovirus 3. Description: Antiviral activity against Parainfluenza-3 virus by cell based assay. Type of data set: functional, organism-based.
Data set [9] has as its system Respiratory syncytial virus. Description: Antiviral activity against Respiratory syncytial virus by cell based assay. Type of data set: functional, organism-based.
For the next data set, the system named is Feline coronavirus. Description: Antiviral activity against Feline coronavirus by cell based assay. It is filed as functional, organism-based.
The subject of the next data set is Vaccinia virus. Description: Antiviral activity against Vaccinia virus by cell based assay. It is filed as functional, organism-based. Conditions: Orthopoxvirus vaccinia.
The test system of the next data set is Simplexvirus. Description: Antiviral activity against Herpes simplex virus by cell based assay. It is filed as functional, organism-based.
For data set [10], the system named is Influenza A virus. Description: Antiviral activity against amantadine-sensitive Influenza A virus (A/Ned/378/05 (H1N1)) infected in MDCK cells assessed as virus-induced cytopathic effect measured 3 days post infection by microscopic analysis. It is filed as functional, organism-based. Conditions: 72 h.
The subject of data set [11] is H3N2 subtype. Put plainly: Antiviral activity against Influenza A virus (A/HK/7/87 (H3N2)) infected in MDCK cells assessed as virus-induced cytopathic effect by MTS assay. It is filed as functional, organism-based, A/Hong Kong/7/1987(H3N2).
Setting [12] is: Influenza A virus, A/Ishikawa/7/82 (H3N2), MDCK, 72 h.

One may read the CC50 as the concentration that lowers cell viability or growth by half. What is called EC50 is the concentration at which the effect is half-maximal. In the case of `NC12CC3CC(CC(C3)C1)C2` [AMANTADINE], the CC50 at 72 h in data set [1] was over 100 µM. Besides, in data set [2], the MCC worked out at 500 µM. Also, the concentration for a half-maximal effect (EC50) in the data set with Influenza A virus [3] (mdck) was 61 µM; in the data set with Influenza A virus [4] (setting [12]) it was 11 µM; in the data set with Influenza A virus [5], 5.1 µM; in the data set on H3N2 subtype [6] it was 3.4 µM.
On to `CCC1(CC)C2CC3CC(C2)CC1(N)C3`, for which the CC50 at 72 h in data set [1] is over 100 µM. Moreover, the MCC in data set [2] is at least 100 µM. The result (in data set [7]; with Coxsackievirus B4; with Punta Toro virus; in the data set on Sindbis virus; in data set [8]; in the data set on Human respirovirus 3) was inactive. Besides, the result (in data set [9]; in the data set with Feline coronavirus; in the data set with Vaccinia virus; with Simplexvirus) was inactive. In addition, the half-maximal effective concentration (EC50) is over 100 µM in the data set with Influenza A virus [3] (Influenza A virus, MDCK, 72 h); over 100 µM with Influenza A virus [4] (setting [12]); 7 µM in the data set with Influenza A virus [5]; 4.7 µM with Influenza A virus [10]; over 100 µM with H3N2 subtype [11] (mdck); over 100 µM in the data set with H3N2 subtype [6].
Take `NC(=O)c1ncn([C@@H]2O[C@H](CO)[C@@H](O)[C@H]2O)n1` [RIBAVIRIN]: the CC50 at 72 h in data set [1] is at least 20 µM. Besides, in data set [2], the MCC is at least 100 µM. The EC50 was found to be 8.8 µM in the data set with Influenza A virus [3] (mdck); 8.8 µM with Influenza A virus [4] (mdck); 10 µM in the data set on Influenza A virus [5]; 7.6 µM in the data set on Influenza A virus [10]; 7 µM in the data set with H3N2 subtype [11] (Influenza A virus, A/Hong Kong/7/1987(H3N2), MDCK); 7.7 µM with H3N2 subtype [6].
Turning to `CCC1(CC)C2CC3CC(C2)CC1(NC)C3`, the CC50 at 72 h in data set [1] was over 100 µM. In addition, the MCC in [2] was at least 100 µM. The outcome (in data set [7]; in the data set with Coxsackievirus B4; in the data set with Punta Toro virus; in the data set with Sindbis virus; in [8]; with Human respirovirus 3) was inactive. Besides, the result (in [9]; with Feline coronavirus; in the data set with Vaccinia virus; in the data set on Simplexvirus) was inactive. Also, the EC50 with Influenza A virus [3] (Influenza A virus, MDCK, 72 h) is over 100 µM; with Influenza A virus [4] (setting [12]), over 100 µM; with Influenza A virus [5] it was 9.3 µM; in the data set on Influenza A virus [10], 8.7 µM; in the data set on H3N2 subtype [11] (mdck), over 100 µM; in the data set with H3N2 subtype [6], over 100 µM.
In the case of `CCOC(=O)C1=C[C@@H](OC(CC)CC)[C@H](NC(C)=O)[C@@H](N)C1` [OSELTAMIVIR], the MCC in [2] was over 100 µM. Also, the EC50 in the data set on Influenza A virus [3] (Influenza A virus, MDCK, 72 h) worked out at 0.11 µM; in the data set on Influenza A virus [4] (setting [12]), 3 µM; with Influenza A virus [5] it was 16 µM; in the data set on Influenza A virus [10], 1.5 µM; with H3N2 subtype [6] it was 29 µM.
With `CC(=O)N[C@H]1[C@H]([C@H](O)[C@H](O)CO)OC(C(=O)O)=C[C@@H]1NC(=N)N` [ZANAMIVIR], the MCC in data set [2] is over 200 µM. Moreover, the half-maximal effective concentration (EC50) in the data set on Influenza A virus [3] (mdck) amounted to 0.16 µM; in the data set with Influenza A virus [4] (setting [12]), 8.7 µM; with Influenza A virus [5], 5 µM; in the data set with Influenza A virus [10], 1.7 µM; with H3N2 subtype [6] it was 1.2 µM.
In the case of `CCC1(CC)C2CC3CC(C2)CC1(N(C)C)C3`, the CC50 at 72 h in data set [1] was over 100 µM. In addition, the MCC in data set [2] is at least 100 µM. Moreover, the outcome (in [7]; in the data set on Coxsackievirus B4; in the data set on Punta Toro virus; with Sindbis virus; in [8]; with Human respirovirus 3) was inactive. In addition, the result (in [9]; in the data set with Feline coronavirus; in the data set with Vaccinia virus; in the data set with Simplexvirus) was inactive. Also, the EC50 is over 100 µM in the data set on Influenza A virus [3] (Influenza A virus, MDCK, 72 h); over 100 µM in the data set on Influenza A virus [4] (setting [12]); 43 µM in the data set with Influenza A virus [5]; 23 µM with Influenza A virus [10]; over 100 µM in the data set with H3N2 subtype [11] (mdck); over 100 µM in the data set on H3N2 subtype [6].
Regarding `CC(N)C12CC3CC(CC(C3)C1)C2` (configuration not stated) [RIMANTADINE], the CC50 at 72 h in [1] is over 100 µM. In [2], the MCC is at least 100 µM. The EC50 with Influenza A virus [3] (mdck) amounted to 7 µM; in the data set on Influenza A virus [4] (setting [12]), 0.45 µM; in the data set on Influenza A virus [5], 1.9 µM; in the data set on Influenza A virus [10] it was 0.5 µM; with H3N2 subtype [6], 0.17 µM.

Values taken from ChEMBL document CHEMBL2203037, “Synthesis and Anti-influenza A Virus Activity of 2,2-Dialkylamantadines and Related Compounds” (ACS Med Chem Lett, 2012).
